Source: BindingDB's records for doi:10.1124/mol.63.6.1329 (University of Milan, 2003)

These compounds were tested against Neuronal acetylcholine receptor subunit alpha-6 (Gallus gallus, UniProt P49581).
Neuronal acetylcholine receptor subunit alpha-6, sequence (P49581 whole entry): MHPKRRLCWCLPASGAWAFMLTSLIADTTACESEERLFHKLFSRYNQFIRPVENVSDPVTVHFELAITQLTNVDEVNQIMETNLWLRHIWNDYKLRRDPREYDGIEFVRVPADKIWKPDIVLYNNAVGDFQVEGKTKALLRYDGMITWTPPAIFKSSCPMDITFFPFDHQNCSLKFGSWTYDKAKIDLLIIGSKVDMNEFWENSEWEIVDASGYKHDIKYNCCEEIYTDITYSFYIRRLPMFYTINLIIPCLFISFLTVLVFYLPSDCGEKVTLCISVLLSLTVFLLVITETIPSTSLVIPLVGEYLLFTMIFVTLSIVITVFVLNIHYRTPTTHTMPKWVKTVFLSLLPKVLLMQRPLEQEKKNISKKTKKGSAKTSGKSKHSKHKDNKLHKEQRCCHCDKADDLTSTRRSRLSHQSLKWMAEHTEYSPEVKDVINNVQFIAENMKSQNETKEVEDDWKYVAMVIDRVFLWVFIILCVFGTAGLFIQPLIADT

Q: CC(C)C[C@@H]1NC(=O)[C@H](CC(N)=O)NC(=O)[C@H](CO)NC(=O)[C@H](Cc2cnc[nH]2)NC(=O)[C@H](CCC(=O)O)NC(=O)[C@H](CC(C)C)NC(=O)[C@H](Cc2cnc[nH]2)NC(=O)[C@@H]2CSSC[C@H](NC(=O)CN)C(=O)N[C@@H](CSSC[C@@H](C(N)=O)NC1=O)C(=O)N[C@@H](CO)C(=O)N[C@@H](CC(N)=O)C(=O)N1CCC[C@H]1C(=O)N[C@@H](C(C)C)C(=O)N2 [Gly-L-Cys(1)-L-Cys(2)-L-Ser-L-Asn-L-Pro-L-Val-L-Cys(1)-L-His-L-Leu-L-Glu-L-His-L-Ser-L-Asn-L-Leu-L-Cys(2)-NH2] was tested. Which Ki did it give?
A: 0.066 µM

Q: For C[N+](C)(C)CCCCCCCCCC[N+](C)(C)C [Decamethonium Iodide], which Ki is on record?
A: > 10 µM

Q: For C[N+](C)(C)CCCCCC[N+](C)(C)C [Hexamethoniumdibromide], which Ki is on record?
A: > 10 µM

Q: COc1cc2c3cc1Oc1cc(ccc1O)CC1c4c(cc(OC)c(O)c4Oc4ccc(cc4)CC3N(C)CC2)CC[N+]1(C)C (configuration not stated) [CAS_64645] was tested. Which Ki did it give?
A: 7.7 µM

Q: How did the Ki turn out when CN1CCC[C@H]1c1cccnc1 [(R,S)-nicotine] was run?
A: 0.02 µM

Q: With COC1CC=C2CCN3CCC4=C(CC(=O)OC4)C23C1 (configuration not stated) [NSC_31762] as the compound, how does the Ki read?
A: 2.8 µM

Q: For CC[N+](CC)(CC)CCOc1ccc(C=Cc2ccccc2)cc1 [CAS_17360], which Ki is on record?
A: 4.52 µM
